Test results from patent US12012419B2, “Heterocyclic compound” (Takeda Pharmaceutical Company Limited, priority 2018, dated 2024).

Columns and labels:
Rat PK test = assay type: in vivo; settings: plasma, male SD rats
Description: As the rat, 8-week-old male SD rats (Japan SLC, Inc.) were used. They were fed on a solid commercially available diet (CE-2, CLEA Japan, Inc.) and allowed to freely ingest tap water as the drinking water. An intravenous administration solution for the rats was prepared by weighing a test compound, dissolving same in dimethylacetamide (DMA) (Wako Pure Chemical Industries, Ltd.), adding the same volume of 1,3-butanediol (Wako Pure Chemical Industries, Ltd.) and mixing by stirring to give a DMA:1,3-butanediol (1:1, v/v) solution. An oral administration solution was prepared by weighing a test compound, pulverizing same in an agate mortar, and gradually adding 0.5 w/v % aqueous methylcellulose solution to give a suspension. For intravenous administration, the solution was administered into femoral vein of the rats at 0.1 mg/0.5 mL/kg (salt converted to free form). For oral administration, the suspension was administered to the rats at 1 mg/5 mL/kg (salt converted to free form). The cassette dosing method was used for the both administration routes, and the test compound was administered in the following manner.
Compound of Example 1 (Intravenous: 10 Compounds Cassette Administration, Oral: 5 Compounds Cassette Administration)
In the case of intravenous administration, blood samples were collected from the tail vein at 5, 10, 15, 30 min, 1, 2, 4, 8 hr after administration, an anticoagulation treatment with heparin sodium (Shimizu Pharmaceutical Co., Ltd.) was performed, and plasma was collected after centrifugation and subjected to the measurement of drug concentration. In the case of oral administration, blood samples were collected from the tail vein at 15, 30 min, 1, 2, 4, 8 hr after administration, an anticoagulation treatment with heparin sodium was performed, and plasma was collected after centrifugation and subjected to the measurement of drug concentration.
All drug concentrations were measured by LC-MS/MS analysis. […]

[1] = molecular target: T1, human M1 receptor (hCHRM1) (Homo sapiens, UniProt P11229); test: Measurement of M1 receptor positive allosteric modulator (M1PAM) activity; assay type: cell-based; settings: CHO-K1 cells stably expressing hCHRM1, in the presence of acetylcholine at EC20 concentration, IP1 readout
T1 construct: expressed in transfected cells
T1 sequence (P11229 1-460): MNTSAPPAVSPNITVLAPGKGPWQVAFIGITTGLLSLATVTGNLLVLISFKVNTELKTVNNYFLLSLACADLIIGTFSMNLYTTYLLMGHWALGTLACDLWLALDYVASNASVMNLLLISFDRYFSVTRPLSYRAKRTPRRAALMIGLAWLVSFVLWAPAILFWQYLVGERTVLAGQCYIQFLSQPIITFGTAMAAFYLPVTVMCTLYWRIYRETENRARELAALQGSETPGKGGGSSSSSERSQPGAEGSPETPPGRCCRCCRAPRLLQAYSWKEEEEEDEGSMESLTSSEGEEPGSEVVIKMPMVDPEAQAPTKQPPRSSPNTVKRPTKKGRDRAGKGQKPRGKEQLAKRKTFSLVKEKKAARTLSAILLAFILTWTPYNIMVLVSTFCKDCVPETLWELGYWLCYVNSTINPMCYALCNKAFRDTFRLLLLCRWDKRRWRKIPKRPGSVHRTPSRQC
Description: Measurement of M1 Receptor Positive Allosteric Modulator (M1PAM) Activity
The activity of a test compound in the presence of acetylcholine at an EC20 concentration affording about 20% action of the maximum activity was measured as PAM activity. The method therefor is as follows. To a 384-well white plate (Greiner) was added 4 μL of the test compound diluted with IP1 Stimulation buffer (CisBio) containing 0.1% fatty acid-free BSA containing 80 nM acetylcholine. Freeze stock of CHO-K1 cells stably expressing human M1 receptor (hCHRM1) was prepared with IP1 Stimulation buffer (CisBio) containing 0.1% fatty acid-free BSA, 4 μL thereof was added (10,000 cells/well) and the mixture was cultured in a 5% CO2 incubator at 37° C. for 1 hr. 4 μL of a solution (CisBio) containing IP1-d2 and Anti-IP1-cryptate Tb conjugate was added, the mixture was incubated at room temperature for 1 hr, and the time-resolved fluorescence signal was measured on an Envision plate reader (PerkinElmer). The activity (%) of the test compound was calculated by defining the value when acetylcholine was added at the final concentration of 20 μM as 100% and the value when DMSO was added instead of the test compound under acetylcholine-free conditions as 0%, and the EC50 value was calculated as a value of 50% of the concentration dependence curve of the test compound.

Male SD rats = test: Rat defecation experiment; assay type: in vivo; settings: mean ± standard error
Description: Rat Defecation Experiment
Male SD rats (5-6 weeks old) were used after an acclimation period for about 1 week. A test drug (1 mg/kg or […]) was suspended in 0.5% methylcellulose solution and orally administered at a volume of 5 mL/kg, and the number of feces 2 hr later was counted. Only 0.5% methylcellulose was administered to a solvent administration group.

MDR1 = molecular target: T2, MDR1 (Homo sapiens, UniProt P08183); test: MDR1 membrane permeability test; assay type: in vitro ADME; settings: LLC-PK1, pH 7.4, 10 μmol/L test compound, Papp B to A / Papp A to B, read-out: Efflux ratio (ER)
T2 construct: expressed in transfected cells
Description: MDR1 Membrane Permeability Test
When MDR1 is expressed in excess in LLC-PK1 cell, which is a polar cell, MDR1 is localized in apical membrane (A), thus promoting transcellular transport from the basement membrane side (B) toward direction A. When a ratio to the transcellular transport in the opposite direction is taken and a ratio to a control cell in which a mock vector has been introduced is further taken, an efflux ratio of MDR1 to simple diffusion (corrected efflux ratio) is calculated. Similarly, when a brain/plasma concentration ratio in Mdr1(−/−) mouse is divided by a brain/plasma concentration ratio in wild-type mouse, an efflux ratio of Mdr1 to simple diffusion in blood-brain barrier (BBB) (Kp, brain ratio, higher value means lower central nervous system permeability) is calculated. […]
Transcellular transport was performed according to the report of Sugimoto et al. (Reference 3). […] After 1 hr, the sample was collected from the side opposite to the side where the drug solution was added, and the concentration of the test compound was measured by LC-MS/MS. […]
Papp, A to B and Papp, B to A (apparent permeability) were calculated from the formula (1), and the efflux ratio (ER) was calculated from the formula (2). […]

Male beagle dogs = test: Experiment on gastrointestinal motility in dogs; assay type: in vivo, dog; settings: 0.03 mg/kg orally, 8 hr after administration, compared with the solvent administration group
Description: Experiment on Gastrointestinal Motility in Dogs
Male beagle dogs each equipped with four pressure transducers (one in the ileum and three in the large intestine) were used after an acclimation period for 15 days after surgery. The compound of Example 1 (0.03 mg/kg) was suspended in 0.5% methylcellulose solution and orally administered at a volume of 10 mL/kg. Only 0.5% methylcellulose was administered to a solvent administration group.
HAPC (abbreviation for high amplitude propagated contractions which mean strong contractions propagated from the oral side to the anal side of the large intestine during defecation. Intestinal contraction pattern observed during normal defecation.) at 8 hr after administration was counted using a telemeter for gastrointestinal motility (GTS-850, STARMEDICAL).

T2 sequence (P08183 whole entry): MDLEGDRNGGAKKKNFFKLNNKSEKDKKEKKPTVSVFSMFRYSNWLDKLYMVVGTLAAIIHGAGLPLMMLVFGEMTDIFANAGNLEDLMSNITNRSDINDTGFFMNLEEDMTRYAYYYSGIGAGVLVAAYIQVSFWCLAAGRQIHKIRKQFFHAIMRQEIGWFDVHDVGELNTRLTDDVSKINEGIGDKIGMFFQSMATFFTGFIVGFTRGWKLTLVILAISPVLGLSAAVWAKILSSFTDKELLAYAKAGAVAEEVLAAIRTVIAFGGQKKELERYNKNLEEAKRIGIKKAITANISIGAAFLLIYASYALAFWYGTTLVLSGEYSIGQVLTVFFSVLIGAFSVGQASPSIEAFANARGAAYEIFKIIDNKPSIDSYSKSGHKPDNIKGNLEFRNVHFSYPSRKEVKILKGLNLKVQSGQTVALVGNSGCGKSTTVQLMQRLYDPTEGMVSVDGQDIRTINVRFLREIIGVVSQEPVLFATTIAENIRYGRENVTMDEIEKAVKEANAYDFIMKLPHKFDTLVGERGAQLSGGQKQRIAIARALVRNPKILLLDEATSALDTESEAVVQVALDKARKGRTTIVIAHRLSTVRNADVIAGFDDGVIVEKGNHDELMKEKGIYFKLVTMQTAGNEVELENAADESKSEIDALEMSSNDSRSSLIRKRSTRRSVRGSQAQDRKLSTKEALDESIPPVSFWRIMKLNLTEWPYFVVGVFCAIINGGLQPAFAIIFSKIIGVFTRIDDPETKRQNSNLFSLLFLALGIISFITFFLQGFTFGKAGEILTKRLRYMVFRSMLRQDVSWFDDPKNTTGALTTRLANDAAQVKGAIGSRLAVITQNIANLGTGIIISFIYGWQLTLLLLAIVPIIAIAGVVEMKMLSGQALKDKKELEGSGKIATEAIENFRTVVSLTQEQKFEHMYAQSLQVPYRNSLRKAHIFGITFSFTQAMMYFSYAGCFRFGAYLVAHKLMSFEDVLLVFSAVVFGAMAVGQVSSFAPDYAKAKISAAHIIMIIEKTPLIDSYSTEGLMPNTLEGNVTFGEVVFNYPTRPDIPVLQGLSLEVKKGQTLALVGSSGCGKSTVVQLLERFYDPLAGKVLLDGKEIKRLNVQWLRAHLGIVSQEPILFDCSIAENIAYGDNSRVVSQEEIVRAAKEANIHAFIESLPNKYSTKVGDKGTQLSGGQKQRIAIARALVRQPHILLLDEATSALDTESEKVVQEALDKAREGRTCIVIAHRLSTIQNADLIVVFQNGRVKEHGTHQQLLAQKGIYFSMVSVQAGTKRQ

COCCNC(=O)c1ccc(Cc2cc3c(c4c2OCC4)OCN([C@H]2CCOC[C@@H]2O)C3=O)cc1F [Example 1, 1,5-anhydro-2,3-dideoxy-3-[6-({3-fluoro-4-[(2-methoxyethyl)carbamoyl]phenyl}methyl)-4-oxo-8,9-dihydro-2H-furo[2,3-h][1,3]benzoxazin-3(4H)-yl]-L-threo-pentitol]
MRT (Rat PK test; intravenous 0.1 mg/kg, 10 compounds cassette administration): 48 min | clearance (Rat PK test; intravenous 0.1 mg/kg, 10 compounds cassette administration, read-out: CL total (converted)): 12.6 mL/min/kg | Tmax (Rat PK test; oral 1 mg/kg, 5 compounds cassette administration): 60 min | EC50 [1]: 0.31 nM | number of feces 2 hr later (Male SD rats; 1 mg/kg orally): 14.8 ± 1.2 | number of feces 2 hr later (Male SD rats; 3 mg/kg orally): 13.9 ± 2.1 | efflux ratio at 1 h, 10 μmol/L (MDR1): 15 | number of HAPCs in the intestinal tract (Male beagle dogs): an increase in the number of HAPCs in the intestinal tract was observed
